Experiment: gradient 5% acetonitrile 3 min, to 50% in 2 min, to 85% in 15 min, held 3 min, 100 µL/min
Settings: column: Zorbax Extend-C18 2.1 x 50 mm; eluents: water / acetonitrile, 0.1% formic acid
How it was run: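 Pure standards were run in mixtures of ~100 molecules by HPLC coupled to a quadrupole time-of-flight mass spectrometer. The column was a Zorbax Extend-C18 (2.1 × 50 mm, 1.8 μm) at 100 μL/min, with water and acetonitrile each containing 0.1% formic acid, in positive and negative ionization mode. Dead and dwell volumes were 40 μL and 900 μL. Retention time was taken from computationally picked adduct peaks, each manually inspected, with data collected over 3 months.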

SMILES | RP-LC retention time [s]
Cc1ccc(S(=O)(=O)C2CS(=O)(=O)CC2S(=O)(=O)c2ccc(C)cc2)cc1 (configuration not stated) | 856
O=C1CCCc2cc(S(=O)(=O)NCCN3CCN(c4ccccc4F)CC3)ccc2N1 | 621
CC1=C(c2ccccc2)S(=O)(=O)N=C1N1CCCN(C(=O)c2cc(F)ccc2F)CC1 | 827
CC(=O)Nc1cccc(NC(C)=O)n1 | 609
CCOC(=O)C(C)Oc1cccc2c(=O)n(CC(=O)Nc3ccc([N+](=O)[O-])cc3)ccc12 (configuration not stated) | 842
COc1cccc2c(C)nc(NC3=NCN(Cc4ccc5c(c4)OCO5)CN3)nc12 | 700
COC(=O)c1ccccc1S(=O)(=O)N1CCc2c(c(-c3nnc(-c4ccc(F)cc4)o3)nn2C)C1 | 915
CNC(=O)c1ccc(-n2nc(Sc3ccc(OC)cc3)ccc2=O)cc1 | 702
Cc1cc(Nc2ncccc2S(N)(=O)=O)ccc1Cl | 908
Cc1cccc(NC(=O)N2CCC3(CC2)NC(=O)c2cc(F)ccc2N3C)c1 | 748
COc1ccc(-c2noc(-c3nnn4c3COC(c3ccc(Cl)cc3)C4)n2)cc1F (configuration not stated) | 1230
CCc1nnc(NC(=O)c2ccoc2COc2ccc(C)cc2)s1 | 803
CCn1c(=O)sc2cc(S(=O)(=O)N3CCC(C(=O)Nc4ccc(F)cc4C)CC3)ccc21 | 911
O=S(=O)(c1cc(-c2nnc(-c3ccc(F)cc3)o2)ccc1Cl)N1CCCC1 | 1070
CCn1ccc2sc(C)c(C(=O)NCc3ccc(SC)cc3)c2c1=O | 866
CCN(CC)CCNC(=O)CSCc1ccc(C)cc1 | 631
Cc1[nH]c(C(=O)NCc2ccccc2Cl)c(C)c1S(=O)(=O)N1CCCC1 | 866
CC1(C)C(=O)NCCN1C(=O)CN1C(=O)c2ccccc2C1=O | 594
CCOc1ccccc1NC(=O)Cc1csc2nc(-c3ccc(OC)c(OC)c3)cn12 | 793
CC1CCN(c2nn(CC(=O)Nc3ccccc3)c(=O)c3ccccc23)CC1 | 1110

SMILES | RP-LC retention time [s]
Cc1nnc(N2CCCC(C(=O)N3CCc4ccccc43)C2)c2nn(-c3ccc(Cl)cc3)c(C)c12 (configuration not stated) | 850
CC(C)NC(=O)C1COC2(CCN(C(=O)c3cccc(Cl)c3)CC2)N1C(=O)c1ccccc1 (configuration not stated) | 725
CN1C(=O)c2cccnc2Sc2cc(NC(=O)Cc3ccccc3Cl)ccc21 | 812
O=C(c1c(F)cccc1F)N1CCN=C1N1CCCCC1 | 623
CC(C)CN1C(=O)CCc2cc(NS(=O)(=O)c3ccccc3F)ccc21 | 845
O=C(Nc1c(-c2ccc(F)cc2)nc2ccccn12)c1cccc(C(F)(F)F)c1 | 748
C/C=C1/CN2CC[C@]34C(=C(C=O)[C@H]1C[C@H]23)Nc1ccccc14 | 606
Cc1cc(C)cc(NC(=O)Cn2c(C(C)C)nc3c(c2=O)CCN(Cc2ccccc2)C3)c1 | 759
Cc1ccc(Nc2c(-c3ccc(C)cc3)nc3nc(C)cc(C)n23)cc1 | 780
Cc1cccc(S(=O)(=O)Nc2cc(-c3cn4cccc(C)c4n3)ccc2C)c1 | 695
O=C(NCc1ccco1)Nc1ccc([N+](=O)[O-])cc1 | 852
O=C(Nc1ccc2nncn2c1)Nc1ccccc1F | 659
Cc1cc(OC(C)C(=O)N[C@H](C(=O)O)c2ccccc2)c2c3c(c(=O)oc2c1)CCC3 (some centres not stated) | 843
COc1ccc2[nH]c3c(c2c1)CCNC31CCN(Cc2ccc(F)cc2F)CC1 | 580
COCCNc1nc(-c2cccc(Cl)c2)nnc1C | 657
O=C(NC1CC(=O)N(c2ccc3c(c2)OCCO3)C1)c1ccc(-c2ccccc2)cc1 (configuration not stated) | 866
O=C(Cn1c(N2CCCCC2)nc2ccccc2c1=O)N1CCN(c2ccccn2)CC1 | 643
CN(Cc1ccccc1)c1ccc(-c2noc(CN3CCSCC3)n2)cn1 | 930
COc1cc(-c2nc3nc(C)cc(C)n3c2Nc2ccccc2)ccc1O | 647

Other lines, results leading:

RP-LC retention time [s] | SMILES
1090 | O=C(Nc1ccccc1C(=O)NCCC1=CCCCC1)C1=CSCCO1
814 | COCCN1C(=O)CCc2cc(NC(=O)CC3CCCCC3)ccc21
995 | O=C(Nc1ccccc1Cl)C1CCCN(C(=O)Cc2cccc3ccccc23)C1 (configuration not stated)
566 | Cc1nc2ccc(C(=O)NC3CCN(C)CC3)cc2nc1C
814 | O=C1CCCc2cc(S(=O)(=O)N3CCC(C(=O)NC4CCCCCCC4)CC3)ccc2N1
551 | Cc1c(C(=O)NCCN2CCCCCC2)sc2ncnc(N3CCN(C)CC3)c12
805 | Cc1ccsc1C(=O)Nc1cccn2c(C3CCC3)nnc12
770 | COc1cccc(CC(=O)N2CCC(C(=O)NCCc3csc(-c4cccs4)n3)CC2)c1
968 | O=C(Nc1ccc2c(c1)CCCN2C(=O)C1CC1)c1nc2ccccc2s1
734 | CCN1C(=O)c2cc(C(=O)NCc3ccc(F)cc3)nn2CC1(C)C(=O)NC1CCCC1 (configuration not stated)
599 | CCCn1cnnc1C1CCCCN1Cc1ccc(Br)o1 (configuration not stated)
667 | COCCC(=O)Nc1cnn(-c2ncc(N3CCCCC3)cn2)c1
896 | O=C(NCc1ccc(Cl)cc1)c1ccc(NC(=O)C2CCC2)cc1N1CCOCC1
1210 | COc1cccc(-c2nc(C3CCN(S(=O)(=O)c4cc(C)ccc4C)CC3)no2)c1
722 | CC1CCN(c2cncnc2-n2cc(NC(=O)NC(C)(C)C)cn2)CC1
577 | CCOc1ccc(CN2CCc3nc(N4CCOCC4)ncc3C2)cc1OCC
978 | Cc1oc(C2CCC2)nc1C(=O)NCc1ccc2c(c1)OCO2
1030 | CC1CCN(c2cncnc2-n2cc(NC(=O)CC3CCCCC3)cn2)CC1
1170 | O=C(NC1CCCCCC1)C1CCCN(c2nccnc2Sc2ccccc2)C1 (configuration not stated)
813 | Cc1ccc(NC(=O)N2CCC(CC(=O)N3CCCCC3)CC2)cc1F
900 | CCN(CC)C(=O)c1cnc2snc(C)c2c1N1CCC(C(=O)Nc2ccc(OC)c(Cl)c2)CC1
646 | COc1ccc(CN2CCN(C(=O)CCc3c(C)noc3C)CC2)cn1
754 | COC(=O)CNC(=O)N1CCCC1c1ccccc1Cl (configuration not stated)
922 | Cc1c(C(=O)N(C)C)cnn1-c1cc(-c2nc(C(C)(C)C)no2)ccn1
930 | COc1ccccc1-c1nc(C2CCN(C(=O)c3cc4ccccc4[nH]3)CC2)no1
619 | O=C(c1ccc(=O)n(CCN2CCCC2)c1)N1CCN(c2ccccc2F)CC1
728 | CC(C)(C)NC(=O)N1CCCC(c2nc(CCOCC3CCOCC3)no2)C1 (configuration not stated)
1020 | CCc1noc(-c2ccnc(-n3ncc(C(=O)NC4CCCCC4)c3C)c2)n1

Reference: the METLIN SMRT retention time set (Domingo-Almenara et al. 2019)
